Source: patent publication US20190145953A1, “METHODS AND MATERIALS FOR ASSESSING INTESTINAL PERMEABILITY” (Mayo Foundation for Medical Education and Research, priority 2016, published 2019)

Legend:
[1] = human, in vivo
Description: The following was performed to evaluate safety and effectiveness of oral nutritional therapy with serum-derived bovine immunoglobulin (SBI) on symptoms, epithelial barrier function, and mucosal expression of pivotal genes in small intestinal mucosa (SI) in patients with IBS-D. This open-label pilot study evaluated effects of SBI, 5.0 g twice daily for 8 weeks, in 15 patients with IBS-D (Rome III) on symptoms, tryptophan metabolism (kynurenine to tryptophan ratio), intestinal permeability [measured by two sugars (^13C-mannitol and lactulose) urine excretion: 0-2 hours (SI) and 2-8 hours (SI and colon)] and distal duodenal mucosal mRNA expression of pivotal genes including tight junction, secretory mechanisms, tissue repair proteins and chemokines. Bowel function and abdominal pain (worst and average) were evaluated using a daily diary including the Bristol Stool Form Scale, and bile acid homeostasis by fasting serum FGF-19 and 7αC4. Statistical analysis was based on ITT principles using paired tests (comparing baseline with results of therapy over 8 weeks or in final 2 weeks) and included imputation for missing data for one patient.

[2] = human, in vivo; remark: listed apart in the source
Description: The following was performed to determine if administration of ^13C-mannitol can be used to measure intestinal permeability. Ten healthy volunteers (five females) received oral sugars after 8 hours of fasting. Those volunteers using tobacco, NSAIDs, oral corticosteroids, sweeteners, lactulose, mannitol, or medications affecting gastrointestinal transit were excluded. Three saccharides (100 mg of ^13C-mannitol, 100 mg of ^12C-mannitol (regular mannitol), and 1000 mg of ^12C-lactulose (regular lactulose)) dissolved in 250 mL of water were administered. 0-2 hour cumulative mannitol and 8-24 hour cumulative lactulose or mannitol excretion were measured to assess small intestinal and colonic permeability, respectively. After baseline urine collection, collections were pooled for 0-2 hours, 2-8 hours, and 8-24 hours following administration of test sugars. High performance liquid chromatography-tandem mass spectrometry was performed to determine urinary sugar concentrations. Cumulative excretions and lactulose:mannitol (L:M) ratios (ratio of fractional excretion) were calculated. Mann-Whitney test was used for statistical analysis.

[3] = type: in vivo, human
Description: 24 healthy volunteers (12 females) aged 18-65 years are recruited. Those using NSAIDs, oral corticosteroids, artificial sweeteners (Splenda, aspartame), lactulose, mannitol, or medications affecting gastrointestinal transit are excluded. All 24 participants undergo a baseline urinary excretion assay using the three saccharides (100 mg ^13C mannitol, 100 mg ^12C mannitol, and 1000 mg lactulose) dissolved in 250 mL of water. 500 mL of water is administered 30 minutes after the sugars are ingested to aid in the production of urine. Participants are allowed regular amounts of water throughout the study, and no standardized meals are provided. Cumulative urine samples for 0-2 hours are collected while they are in the CRU and stored. Two containers are provided for the cumulative 2-8 hour collection and cumulative 8-24 hour collection. Participants are instructed to return these collections the following day. The collections are subjected to HPLC-MS for quantitative estimation of the sugars.
These participants receive 75 mg of Indomethacin orally 8 hour and 30 minutes prior to a second urinary excretion assay using the same three sugars. Finally, these participants undergo a third assay after 4 weeks from the end of the second assay in the absence of any indomethacin or other NSAIDs or perturbations. All three assays are done using the same protocol and urinary collections. Additionally, these participants undergo an upper endoscopy with duodenal biopsies at baseline and after Indomethacin challenge. The ^13C mannitol-assay based urinary excretion findings are correlated with histology findings on light microscopy and with ex vivo mucosal barrier function/permeability. For this, tw freshly obtained biopsies are mounted in 4 mL Ussing chambers (Physiological Instruments, California, USA) exposing a 0.03 cm^2 area. Transepithelial resistance is measured using Ag/AgCl electrodes with agar-salt bridges and current delivered with platinum electrodes. Macromolecular flux across biopsies are studied using FITC Dextran (4 kDa, Molecular Probes, New York). At 30-minute intervals for a total of 3 hours, basal compartment fluorescence are analyzed.
At each visit, baseline excretion of ^12C mannitol was higher than the ^13C mannitol (p<0.0001) with 5 of 73 subjects excreting >10 mg of ^12C mannitol prior to test dose administration. At visit 1, one subject excreted 62 mg of ^12C mannitol, which dropped to 28 mg after test dose administration.
This recovered completely at visit 3. Both low and high dose Indomethacin had similar effects. […] It is possible that intestinal microflora can influence the L:M based excretion assay for intestinal permeability. To test this, seven patients underwent a fourth testing following bowel prep with MoviPrep. […] This could reflect increased transit after the bowel prep resulting in less contact time between the sugar and the absorptive surface area.

[4] = Cumulative urinary excretion of oral sugars by HPLC-MS in IBS-C patients and healthy volunteers (Example 3); type: in vivo, human
Description: The following was performed to determine duodenal and colonic barrier function and endotoxin activity in females with IBS-C in comparison to healthy. 16 IBS-C (Rome III) patients and 13 matched healthy volunteers (females) were given oral lactulose, ^12C mannitol and ^13C mannitol measured cumulatively over 0-2 and 8-24 hours by HPLC-MS. 10 biopsies were obtained from duodenum and sigmoid colon. Mucosal transepithelial resistance (TER), FITC dextran (4 KDa), and E. coli K12 BioParticle flux were measured in Ussing chambers. Endotoxin activity (blood) was measured towards gram-negative bacterial lipopolysaccharide. Unpaired 2-sided t-tests were used for comparisons.

[5] = test system: colonic bacteria; conditions: in vivo, po; cited from earlier work
[6] = Indomethacin challenge, p=0.004

Molecule: ^13C-mannitol
- Excretion at baseline in IBS-D patients vs 8 healthy controls [1]: did not differ
- L:M ratio: Mean (SEM), 0-2 hours [2]: 0.007
- L:M ratio: Mean (SEM), 2-8 hours [2]: 0.01
- L:M ratio: Mean (SEM), 8-24 hours [2]: 0.01
- Mean lower baseline contamination vs 12C mannitol [2]: 20 fold
- Participants with disproportionately high baseline excretion [2]: none
- Baseline excretion ([3]; in vivo): nearly undetectable
- Change of excretion in the 0-2 hr interval compared with baseline ([3]; in vivo): increased in all cases

Molecule: OC[C@@H](O)[C@@H](O)[C@H](O)[C@H](O)CO [^12C-mannitol]
- L:M ratio: Mean (SEM), 0-2 hours [2]: 0.006
- L:M ratio: Mean (SEM), 2-8 hours [2]: 0.009
- L:M ratio: Mean (SEM), 8-24 hours [2]: 0.002
- Participants with disproportionately high baseline excretion [2]: Three of the ten
- Baseline excretion ([3]; in vivo): higher
- Change of excretion in the 0-2 hr interval compared with baseline ([3]; in vivo): four subjects exhibited no significant increase
- Cumulative (0-24h) mean recovery, comparison 12C vs 13C mannitol ([3]; in vivo): significantly higher
- Excretion of one subject after test dose administration ([3]; in vivo): 28 mg
- Excretion of one subject at baseline ([3]; in vivo): 62 mg
- Subjects excreting >10 mg prior to test dose administration ([3]; in vivo): 5 of 73

Molecule: COc1ccc2c(c1)c(CC(=O)O)c(C)n2C(=O)c1ccc(Cl)cc1 [Indomethacin]
- 0-2h lactulose excretion compared to baseline (visit 1) ([3]; Indomethacin challenge, p<0.0001): increased
- 2-8h lactulose excretion compared to baseline (visit 1) [3, 6]: increased
- 8-24h lactulose excretion compared to baseline (visit 1) [3, 6]: increased
- 12C or 13C mannitol excretion with Indomethacin treatment ([3]; either excretion time-point): did not increase

Molecule: OC[C@H]1O[C@@H](O[C@@H]2[C@@H](CO)OC(O)(CO)[C@H]2O)[C@H](O)[C@@H](O)[C@H]1O (mixture of isomers) [lactulose]
- 0-2 hr cumulative urinary excretion (mg), mean (SEM) ([4]; Healthy Volunteers (n=11)): 0.99(0.12) mg
- 8-24 hr cumulative urinary excretion (mg), mean (SEM) ([4]; Healthy Volunteers (n=11)): 0.72(0.31) mg
- 0-2 hr cumulative urinary excretion (mg), mean (SEM) ([4]; IBS-C (n=16)): 1.12(0.19) mg
- 8-24 hr cumulative urinary excretion (mg), mean (SEM) ([4]; IBS-C (n=16)): 1.06(0.55) mg

Molecule: OC[C@@H](O)[C@@H](O)[C@H](O)[C@H](O)CO [mannitol]
- Fraction of orally ingested mannitol metabolized by colonic bacteria [5]: about 75%
